# Measurements reported in patent US4732977A, “Carbapenem antibiotics” (priority 1986, dated 1988).
# Read-outs that look alike come from different tables or passages of the source.
# Experiment: Half-life (stability) in buffer solution
# Format: physicochemical
# Settings: for half-life at 100 µM: 10^-4 M; for half-life: biological buffer
# Experimental: T1/2 =9.8 h (measured at a concentration of 10^-4 M in phosphate buffer pH 7.4 at 36.8° C.).
# UV (phosphate buffer, pH 7.4) λmax 294 nm (ε=8,202); T1/2 (phosphate buffer, pH 7.4, M=0.967, T=37° C.) 9.1 h.
# (c of 10^-4 M in pH 7.4 phosphate buffer.
# .tau.1/2 =20.8 h measured at 37° C. in buffer (pG 7.4) for a concentration of 10^-4 M.
# .tau.1/2 =12.5 h measured at 37° C. in buffer pH 7.4 for a concentration of 10^-4 M.
# h (measured for a concentration of 10^-4 M at 36.8° C. in buffer pH 7.4).
# .tau.1/2 =26.0 h (measured for a concentration of 10^-4 M at 36.8° C. in buffer pH 7.4).
# .tau.1/2 =16.6 h (measured at 36.8° C., pH 7.4 for a concentration of 10^-4 M) and (5R, 6S) 6-(1R-hydroxyethyl)7-oxo-3-[1,2,6-trimethylpyridinium-4-yl)methylthio]-1-azabicyclo[3.2.0 hept-2-ene-2-carboxylate, 0.010 g, 0.7%;
# .tau.1/2 =11.6 h (measured for a concentration of 10^-4 M at 36.8° C. in buffer pH 7.4).
# .tau.1/2 =13.4 h (measured for a concentration of 10^-4 M at 36.8° C. in buffer pH 7.4).
# .tau.1/2 =14.4 h (measured for a concentration of 10^-4 M at 36.8° C. in buffer pH 7.4).
# T 1/2: 10.2 h (biological buffer).
# .tau.1/2 =10.2 h measured at 36.8° C. for a concentration of 10^-4 M in buffer pH 7.4.
# [1] = (phosphate) buffer pH 7.4, 36.8° C., read-out: T1/2 (half-life in solution) (converted)
# [2] = (phosphate) buffer pH 7.4, 37° C., read-out: half-life in solution (converted)
smiles,measurement,setting,value
"Cc1cc(CSC2=C(C(=O)[O-])N3C(=O)[C@H]([C@@H](C)O)C3[C@H]2C)c[n+](C)c1 (stereo in doubt) [Example 35, (5R,6S) 3-[(1,5-dimethylpyridinium-3-yl)methylthio]-6-(1R-hydroxyethyl)-4R-methyl-7-oxo-1-azabicyclo[3.2.0]hept-2-ene-2-carboxylate]",half-life at 100 µM,[1],26 h
"Cc1c(CSC2=C(C(=O)[O-])N3C(=O)[C@H]([C@@H](C)O)C3[C@H]2C)sc[n+]1C (stereo in doubt) [Example 54, (5R,6S) 3-[(3,4-Dimethylthiazolium-5-yl)methylthio]-6-(1'R-hydroxyethyl)-4R-methyl-7-oxo-1-azabicyclo[3.2.0]hept-2-ene-2-carboxylate]",half-life at 100 µM,[2],19 h
"C[C@@H](O)[C@H]1C(=O)N2C(C(=O)[O-])=C(SCc3cncc[n+]3C)C[C@H]12 [Example 45, (5R,6S)-6-(1R-Hydroxyethyl)-3-[(1-methyl-1,4-pyraziinium-2-yl)methylthio]-7-oxo-1-azabicyclo(3.2.0)-hept-2-ene-2-carboxylate]",half-life,read-out: T 1/2 (half-life in solution) (converted),10.2 h
"Cc1cccc(CSC2=C(C(=O)[O-])N3C(=O)[C@H]([C@@H](C)O)C3[C@H]2C)[n+]1C (stereo in doubt) [Example 25, (5R,6S) 3-[(1,6-dimethylpyridinium-2-yl)methylthio]-6-(1R-hydroxyethyl)-4R-methyl-7-oxo-1-azabicyclo[3.2.0]hept-2-ene-2-carboxylate]",half-life at 100 µM,[2],20.8 h
Cc1c(CSC2=C(C(=O)[O-])N3C(=O)[C@H]([C@@H](C)O)[C@H]3C2)sc[n+]1C [Example 50],half-life at 100 µM,"pH 7.4 phosphate buffer, temperature not given, read-out: half-life in solution (converted)",11 h
"Cc1cc(C)[n+](C)c(CSC2=C(C(=O)[O-])N3C(=O)[C@H]([C@@H](C)O)C3[C@H]2C)c1 (stereo in doubt) [Example 51A, (5R,6S) 6-(1R-Hydroxyethyl)-4R-methyl-7-oxo-3-[(1,4,6-trimethylpyridinium-2-yl)-methylthio]-1-azabicyclo[3.2.0]hept-2-ene-2-carboxylate]",half-life at 100 µM,"phosphate buffer, 36.7° C., read-out: t 1/2 (half-life in solution) (converted)",22.3 h
"Cc1ccc(CSC2=C(C(=O)[O-])N3C(=O)[C@H]([C@@H](C)O)C3[C@H]2C)c[n+]1C (stereo in doubt) [Example 34, (5R,6S) 3-[(1,6-dimethylpyridinium-3-yl)methylthio]-6-(1R-hydroxyethyl)-4R-methyl-7-oxo-1-azabicyclo[3.2.0]hept-2-ene-2-carboxylate]",half-life at 100 µM,[1],27.8 h
"Cc1cc(C)[n+](C)c(CSC2=C(C(=O)[O-])N3C(=O)[C@H]([C@@H](C)O)[C@H]3C2)c1 [(5R,6S) 6-(1R-hydroxyethyl)-7-oxo-3-[(1,4,6-trimethylpyridinium-2-yl)methylthio]-1-azabicyclo[3.2.0]hept-2-ene-2-carboxylate]",half-life at 100 µM,[1],16.6 h
"Cc1cc(CSC2=C(C(=O)[O-])N3C(=O)[C@H]([C@@H](C)O)C3[C@H]2C)cc(C)[n+]1C (stereo in doubt) [Example 51B, (5R,6S) 6-(1R-Hydroxyethyl)-4R-methyl-7-oxo-3-[(1,2,6-trimethylpyridinium-4-yl)-methylthio]-1-azabicyclo[3.2.0]hept-2-ene-2-carboxylate]",half-life at 100 µM,[1],29.8 h
"Cc1ccc(CSC2=C(C(=O)[O-])N3C(=O)[C@H]([C@@H](C)O)[C@H]3C2)c[n+]1C [Example 38, (5R,6S) 3-[(1,6-dimethylpyridinium-3-yl)methylthio]-6-(1R-hydroxyethyl)-7-oxo-1-azabicyclo[3.2.0]hept-2-ene-2-carboxylate]",half-life at 100 µM,[1],14.4 h
"C[C@@H](O)[C@H]1C(=O)N2C(C(=O)[O-])=C(SCc3cncc[n+]3C)[C@H](C)[C@H]12 [Example 46, (5R,6S)-6-(1R-Hydroxyethyl)-4R-methyl-3-[(1-methyl-1,4-pyrazinium-2-yl)-methylthio]-7-oxo-1-azabicyclo[3.2.0]-hept-2-ene-2-carboxylate]",half-life,"unit inferred, read-out: T1/2 (half-life in solution) (converted)",12.3 h
"Cc1cccc(CSC2=C(C(=O)[O-])N3C(=O)[C@H]([C@@H](C)O)[C@H]3C2)[n+]1C [Example 26, (5R,6S) 3-[(1,6-dimethylpyridinium-2-yl)methylthio]-6-(1R-hydroxyethyl)-7-oxo-1-azabicyclo[3.2.0]hept-2-ene-2-carboxylate]",half-life at 100 µM,[2],12.5 h
